In patent US20170202787A1, “TREATMENT OF CHRONIC OBSTRUCTIVE PULMONARY DISEASE WITH NEBULIZED BETA 2-AGONIST OR COMBINED NEBULIZED BETA 2-AGONIST AND ANTICHOLINERGIC ADMINISTRATION” (Sunovion Respiratory Development, Inc., priority 2009, published 2017):
Counter-ions that a name gives are not always drawn. Like-named read-outs stand apart in the source and are kept apart here.

How the values were obtained:
[1] = not given; remark: listed apart in the source
[2] = approved twice-daily dosing in COPD; cited from earlier work
[3] = nebulized, clinical trial in COPD; cited from earlier work
[4] = high efficiency nebulizer
[5] = not given; remark: listed apart in the source
[6] = not given; remark: listed apart in the source
[7] = Example 6: randomized, cross-over, single dose study of nebulized salmeterol in healthy volunteers
[8] = conventional nebulizer, same or higher dose
[9] = lower dose, high efficiency nebulizer

Compound: COc1ccc(CC(C)NCC(O)c2ccc(O)c(NC=O)c2)cc1 (racemic) [formoterol]
- duration of clinically meaningful bronchodilation [8]: less than 24 hours
- duration of clinically meaningful bronchodilation (high efficiency nebulizer): at least 24 hours
- duration of clinically meaningful bronchodilation [1, 8]: less than 24 hours
- duration of clinically meaningful bronchodilation ([1]; high efficiency nebulizer): at least 24 hours

Compound: COc1ccc(C[C@@H](C)NC[C@H](O)c2ccc(O)c(NC=O)c2)cc1 [arformoterol tartrate]
- duration of clinically meaningful bronchodilation with acceptable side effects [2]: 12 h
- duration of clinically meaningful bronchodilation [3]: 24 h
- side effects at the dosing giving 24 hours of bronchodilation [3]: unacceptable side effects

Compound: COc1ccc(C[C@@H](C)NC[C@H](O)c2ccc(O)c(NC=O)c2)cc1 [arformoterol, R,R-formoterol]
- adverse event profile compared to a comparable or lower dose with a conventional nebulizer [4]: improved adverse event profile
- lung deposition compared to a comparable or higher dose with a conventional nebulizer [4]: higher degree of lung deposition
- duration of clinically meaningful bronchodilation [5, 8]: less than 24 hours
- duration of clinically meaningful bronchodilation ([5]; high efficiency nebulizer): at least 24 hours
- duration of clinically meaningful bronchodilation [6, 8]: less than 24 hours
- duration of clinically meaningful bronchodilation ([6]; high efficiency nebulizer): at least 24 hours

Compound: COc1ccc(C[C@@H](C)NC[C@H](O)c2ccc(O)c(NC=O)c2)cc1.COc1ccc(C[C@@H](C)NC[C@H](O)c2ccc(O)c(NC=O)c2)cc1.O=C(O)/C=C/C(=O)O [formoterol fumarate]
- duration of clinically meaningful bronchodilation with acceptable side effects [2]: 12 h

Compound: OCc1cc(C(O)CNCCCCCCOCCCCc2ccccc2)ccc1O (centres unmarked) [salmeterol xinafoate]
- duration of clinically meaningful bronchodilation with acceptable side effects [2]: 12 h

Compound: OCc1cc(C(O)CNCCCCCCOCCCCc2ccccc2)ccc1O (centres unmarked) [salmeterol]
- duration of clinically meaningful bronchodilation ([7]; high efficiency nebulizer): at least 24 hours
- period of time of therapeutic effect ([7]; high efficiency nebulizer, tested doses): 12 to 24 h
- adverse event profile / side effects (serum potassium, glucose) compared to a selected dose with a conventional nebulizer [7, 9]: improved adverse event profile and/or improved side effects
- therapeutic effects compared to a selected dose with a conventional nebulizer [7, 9]: improved or similar therapeutic effects
- duration of clinically meaningful bronchodilation ([7]; same dose with conventional nebulizer, metered dose inhaler, or dry powder inhaler): less than 24 hours
